The text below walks through data of patent publication US20220169628A1 (University of Florida Research Foundation, Incorporated, priority 2019, published 2022).

Holding throughout (type): cell-based
The test system of assay [1] is MOLT-4 cells. As to the kind of experiment: Cell viability assay, MTS, 48 h, MOLT-4. The conditions noted are these: Homo sapiens, MOLT-4, 48 h. Here is the method:
(§1) Acute lymphoblastic leukemia cells (MOLT-4 and RS4; 11) or small cell lung cancer (NCI-H146 or simply H146) were incubated with increasing concentrations of Bcl-xL degraders for 48 h. Cell viability was measured by tetrazolium-based MTS assay.

The test system of the next assay is RS4;11 cells. As to the kind of experiment: Cell viability assay, MTS, 48 h, RS4;11. The conditions noted are these: Homo sapiens, RS4-11, 48 h. Here is the method: as §1
For another assay, the system named is NCI-H146 cells. As to the kind of experiment: Cell viability assay, MTS, 48 h, NCI-H146. The conditions noted are these: Homo sapiens. Here is the method: as §1
A further assay relates to human platelets. As to the kind of experiment: Human platelet viability, 48 h. The conditions noted are these: Platelet.
The next assay deals with Bcl-xL (Homo sapiens, UniProt Q07817). As to the kind of experiment: Protein degradation assay in MOLT-4 cells (western blot). Set-up: endogenous in cells; host or cells: MOLT-4 cells. The conditions noted are these: 16 h, read-out: DC50 (concentration with 50% degradation) of Bcl-xL. Here is the method:
MOLT4 cells and human platelets were incubated with increasing concentrations of test compounds for 16 h. The cells were harvested and lysed in RIPA lysis buffer supplemented with protease and phosphatase inhibitor cocktails. An equal amount of protein (20 μg/lane) was resolved on a pre-cast 4-20% SDS-PAGE gel. Proteins were subsequently transferred to NOVEX PVDF membranes by electrophoresis. The membranes were blocked in blocking buffer (5% non-fat dry milk in TBS-T), and incubated with primary antibodies (at optimized concentrations) overnight at 4° C. After three washings in TBS-T, the membranes were incubated with an appropriate HRP-conjugated secondary antibody for 1 h at room temperature. After extensive washing for three times, the proteins of interest were detected with ECL western blotting detection reagents and recorded with autoradiography (Pierce Biotech, Rockford, Ill., USA). The primary antibodies for Bcl-xL (Cat #2762), Bcl-2 (Cat #2872), Mcl-1 (Cat #5453) and β-actin (Cat #4970) were purchased from Cell Signaling technology. The relative band intensity was measured using ImageJ software and normalized to b-actin. The DC50 (concentration with 50% degradation) was calculated using GraphPad Prism.
MOLT-4 cells and human platelets were incubated with increasing concentrations of test compounds for 16 h. The cells were harvested and lysed in RIPA lysis buffer supplemented with protease and phosphatase inhibitor cocktails. An equal amount of protein (20 μg/lane) was resolved on a pre-cast 4-20% SDS-PAGE gel. Proteins were subsequently transferred to NOVEX PVDF membranes by electrophoresis. […] After extensive washing for three times, the proteins of interest were detected with ECL western blotting detection reagents and recorded with autoradiography (Pierce Biotech, Rockford, Ill., USA). […] The relative band intensity was measured using ImageJ software and normalized to β-actin. The DC50 was calculated using GraphPad Prism.
A general note: In western blotting, separated proteins are transferred to a membrane and probed.

For assay [2], the system named is MOLT-4 cells. The assay can be described thus: Cell viability assay, MTS, 72 h, MOLT-4. The conditions noted are these: Homo sapiens; MOLT-4 cells, 72 h, MTS. Here is the method:
(§2) Cancer cells from different tissue origins including acute lymphoblastic leukemia (MOLT4 and RS4; 11), small cell lung cancer (NCI-H146 or simply H146), and multiple myeloma (EJM and H929) were incubated with increasing concentrations of Examples 1-21 or ABT-263 for 72 h. Cell viability was measured by tetrazolium-based MTS assay. 5×10^4 to 1×10^5 suspension cells or 3×10^3 to 5×10^3 adherent cells were seeded and treated in 96-well plates for 72 h. The EC50 values of individual agents were calculated with GraphPad Prism.

Another assay deals with RS4 cells. As to the kind of experiment: Cell viability assay, MTS, 72 h, RS4;11. The conditions noted are these: Homo sapiens. Here is the method:
as §2

Structures are written as SMILES. pIC50: −log10 of the molar value. Like-named read-outs stand apart in the source and are kept apart here.

Sequence of Bcl-xL (Q07817 whole entry): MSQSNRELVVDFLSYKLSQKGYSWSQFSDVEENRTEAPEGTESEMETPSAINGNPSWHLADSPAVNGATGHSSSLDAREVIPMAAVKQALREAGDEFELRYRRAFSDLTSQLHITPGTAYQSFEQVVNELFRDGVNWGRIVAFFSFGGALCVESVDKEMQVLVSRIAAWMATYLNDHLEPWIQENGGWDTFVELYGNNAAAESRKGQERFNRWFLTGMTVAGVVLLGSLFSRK

One may read the IC50 as the concentration that gives 50% inhibition. Broadly, the pIC50 is the IC50 on a negative log10 scale, so that one unit is a factor of ten. For `Cc1ncsc1-c1ccc([C@H](C)NC(=O)[C@@H]2C[C@@H](O)CN2C(=O)[C@@H](NC(=O)CCCCCCCCC(=O)NC[C@@]2(C)CCC(c3ccc(Cl)cc3)=C(CN3CCN(c4ccc(C(=O)NS(=O)(=O)c5ccc(N[C@H](CCN6CCOCC6)CSc6ccccc6)c(S(=O)(=O)C(F)(F)F)c5)cc4)CC3)C2)C(C)(C)C)cc1` [degrader #41, N1-(((S)-4′-chloro-4-methyl-6-((4-(4-(((4-(((R)-4-morpholino-1-(phenylthio)butan-2-yl)amino)-3-((trifluoromethyl)sulfonyl)phenyl)sulfonyl)carbamoyl)phenyl)piperazin-1-yl)methyl)-2,3,4,5-tetrahydro-[1,1′-biphenyl]-4-yl)methyl)-N10-((S)-1-((2S,4R)-4-hydroxy-2-(((S)-1-(4-(4-methylthiazol-5-yl)phenyl)ethyl)carbamoyl)pyrrolidin-1-yl)-3,3-dimethyl-1-oxobutan-2-yl)decanediamide], the IC50 was determined as 154 nM with MOLT-4 cells [1] (48 h, read-out: MOLT-4 IC50 (nM, 48 h)); 497 nM in the assay on RS4;11 cells (48 h, read-out: RS4, 11 IC50 (nM, 48 h)); 314 nM with NCI-H146 cells; 10 µM in the assay on human platelets. For the same compound, the pIC50 with MOLT-4 cells [1] (48 hours, read-out: IC50 (48 hours) MOLT-4) was 6.30 to 6.82; with RS4;11 cells (48 hours, read-out: IC50 (48 hours) RS4;11), less than 6.30. In addition, the DC50 at Bcl-xL stood at 101 nM.
Take `CC1(CNC(=O)CCCCCNc2cccc3c2C(=O)N(C2CCC(=O)NC2=O)C3=O)CCC(c2ccc(Cl)cc2)=C(CN2CCN(c3ccc(C(=O)NS(=O)(=O)c4ccc(N[C@H](CCN5CCOCC5)CSc5ccccc5)c(S(=O)(=O)C(F)(F)F)c4)cc3)CC2)C1` (stereo partly drawn) [Compound 62, 4-(4-((4′-chloro-4-((6-((2-(2,6-dioxopiperidin-3-yl)-1,3-dioxoisoindolin-4-yl)amino)hexanamido)methyl)-4-methyl-3,4,5,6-tetrahydro-[1,1′-biphenyl]-2-yl)methyl)piperazin-1-yl)-N-((4-(((R)-4-morpholino-1-(phenylthio)butan-2-yl)amino)-3-((trifluoromethyl)sulfonyl)phenyl)sulfonyl)benzamide]: the pIC50 is 7.44 in the assay on MOLT-4 cells [2] and 7.48 in the assay on RS4 cells.
Take `Cc1ncsc1-c1ccc([C@H](C)NC(=O)[C@@H]2C[C@@H](O)CN2C(=O)[C@@H](NC(=O)CCCCCCCCCCC(=O)NCC2(C)CCC(c3ccc(Cl)cc3)=C(CN3CCN(c4ccc(C(=O)NS(=O)(=O)c5ccc(N[C@H](CCN6CCOCC6)CSc6ccccc6)c(S(=O)(=O)C(F)(F)F)c5)cc4)CC3)C2)C(C)(C)C)cc1` (stereo partly drawn) [Compound 55, N^1-((4′-chloro-4-methyl-6-((4-(4-(((4-(((R)-4-morpholino-1-(phenylthio)butan-2-yl)amino)-3-((trifluoromethyl)sulfonyl)phenyl)sulfonyl)carbamoyl)phenyl)piperazin-1-yl)methyl)-2,3,4,5-tetrahydro-[1,1′-biphenyl]-4-yl)methyl)-N^2—((S)-1-((2S,4R)-4-hydroxy-2-(((S)-1-(4-(4-methylthiazol-5-yl)phenyl)ethyl)carbamoyl)pyrrolidin-1-yl)-3,3-dimethyl-1-oxobutan-2-yl)dodecanediamide]: the pIC50 is 6.95 in the assay with MOLT-4 cells [2] and 7.02 in the assay with RS4 cells.
Taken in the same sequence, the figures for `Cc1ncsc1-c1ccc([C@H](C)NC(=O)[C@@H]2C[C@@H](O)CN2C(=O)[C@@H](NC(=O)COCCOCCOCCOCC(=O)NCC2(C)CCC(c3ccc(Cl)cc3)=C(CN3CCN(c4ccc(C(=O)NS(=O)(=O)c5ccc(N[C@H](CCN6CCOCC6)CSc6ccccc6)c(S(=O)(=O)C(F)(F)F)c5)cc4)CC3)C2)C(C)(C)C)cc1` (stereo partly drawn) [Compound 59, N^1-((4′-chloro-4-methyl-6-((4-(4-(((4-(((R)-4-morpholino-1-(phenylthio)butan-2-yl)amino)-3-((trifluoromethyl)sulfonyl)phenyl)sulfonyl)carbamoyl)phenyl)piperazin-1-yl)methyl)-2,3,4,5-tetrahydro-[1,1′-biphenyl]-4-yl)methyl)-N^14—((S)-1-((2S,4R)-4-hydroxy-2-(((S)-1-(4-(4-methylthiazol-5-yl)phenyl)ethyl)carbamoyl)pyrrolidin-1-yl)-3,3-dimethyl-1-oxobutan-2-yl)-3,6,9,12-tetraoxatetradecanediamide] were 6.01 and 6.39.
Taken in the same sequence, the figures for `Cc1ncsc1-c1ccc([C@H](C)NC(=O)[C@@H]2C[C@@H](O)CN2C(=O)[C@@H](NC(=O)CCCCCCC(=O)NCC2(C)CCC(c3ccc(Cl)cc3)=C(CN3CCN(c4ccc(C(=O)NS(=O)(=O)c5ccc(N[C@H](CCN6CCOCC6)CSc6ccccc6)c(S(=O)(=O)C(F)(F)F)c5)cc4)CC3)C2)C(C)(C)C)cc1` (stereo partly drawn) [Compound 51, N^1-((4′-chloro-4-methyl-6-((4-(4-(((4-(((R)-4-morpholino-1-(phenylthio)butan-2-yl)amino)-3-((trifluoromethyl)sulfonyl)phenyl)sulfonyl)carbamoyl)phenyl)piperazin-1-yl)methyl)-2,3,4,5-tetrahydro-[1,1′-biphenyl]-4-yl)methyl)-N^8—((S)-1-((2S,4R)-4-hydroxy-2-(((S)-1-(4-(4-methylthiazol-5-yl)phenyl)ethyl)carbamoyl)pyrrolidin-1-yl)-3,3-dimethyl-1-oxobutan-2-yl)octanediamide] were 6.85 and 7.33.
For `Cc1ncsc1-c1ccc([C@H](C)NC(=O)[C@@H]2C[C@@H](O)CN2C(=O)[C@@H](NC(=O)CCCCCCCC(=O)NCC2(C)CCC(c3ccc(Cl)cc3)=C(CN3CCN(c4ccc(C(=O)NS(=O)(=O)c5ccc(N[C@H](CCN6CCOCC6)CSc6ccccc6)c(S(=O)(=O)C(F)(F)F)c5)cc4)CC3)C2)C(C)(C)C)cc1` (stereo partly drawn) [Compound 52, N^1-((4′-chloro-4-methyl-6-((4-(4-(((4-(((R)-4-morpholino-1-(phenylthio)butan-2-yl)amino)-3-((trifluoromethyl)sulfonyl)phenyl)sulfonyl)carbamoyl)phenyl)piperazin-1-yl)methyl)-2,3,4,5-tetrahydro-[1,1′-biphenyl]-4-yl)methyl)-N^9—((S)-1-((2S,4R)-4-hydroxy-2-(((S)-1-(4-(4-methylthiazol-5-yl)phenyl)ethyl)carbamoyl)pyrrolidin-1-yl)-3,3-dimethyl-1-oxobutan-2-yl)nonanediamide], in that order: 6.91 and 7.37.
